Source: PMC9725750, “The clinical pharmacology of tafenoquine in the radical cure of Plasmodium vivax malaria: An individual patient data meta-analysis” (eLife, 2022)

Columns and labels:
[1] = design: method as in Shanks et al., 2001; conditions: ref Shanks et al., 2001, cited from earlier work
Plasmodium vivax = experiment: Radical cure efficacy: any P. vivax recurrence within 4 months in patients, pooled DETECTIVE part 1/2 and GATHER (logistic regression and Emax models); type: in vivo, human; conditions: for mean recurrence proportion: empirical weight distribution
Description: The primary endpoint for the main efficacy analyses was any P. vivax recurrence within 4 months. We chose the binary endpoint of any recurrence rather than the time to first recurrence because tafenoquine has both asexual stage antimalarial activity ([Fukuda et al., 2017]) and hypnozoiticidal activity. […] The choice of a particular cut-off for follow-up is thus a trade-off between sensitivity and specificity. Longer follow-up will increase the sensitivity of the endpoint (include more relapses) but decrease specificity (include more reinfections).
For all predictors we fitted Bayesian mixed effects logistic regression models (random intercepts for study and study site), with adjustment for day 0 parasitaemia (log transformed). Logistic regression allows inference of the odds-ratio for recurrence for the predictive variable of interest, assuming a linear relationship between the predictive variable and log-odds for recurrence.
For the mg/kg dose (the primary predictor of interest), the dose-response relationship was then assessed under a Bayesian Emax model, where the dose-dependent logit probability of recurrence is defined as: Emax(d,x)=α+βx+δd^k/d^k+γ^k,
The Emax model was also fitted with random intercepts for study and study site.
To determine the main predictors of recurrence, we fitted a multivariable penalised Bayesian logistic regression model. This included the following variables as predictors: the tafenoquine mg/kg dose; the plasma tafenoquine AUC[0,∞); the plasma tafenoquine Cmax; the day 7 MetHb concentration (%); the terminal elimination half-life t1/2; and the baseline parasite density. The model included random intercept terms for each study and study site. […] To avoid convergence issues resulting from the co-linearity of the predictors, the prior on all non-hierarchical coefficients was set to a Normal(0,0.5). This prior effectively shrinks the regression coefficients towards zero. It can be interpreted as follows: plausible odds-ratios for recurrence for one standard deviation change for each of the fixed effect predictors lie approximately between 0.38 and 2.7).
In a priori sensitivity analyses, all recurrences up until 6 months were included as both binary and time to event outcomes. The time to first recurrence was defined as a P. vivax episode between day 7 and day 180 with right censoring at the last recorded visit. We also re-ran the same models in patients who received a 300 mg single dose of tafenoquine only (i.e. the current recommended treatment).

CYP2D6 = CYP2D6 activity score (poor vs normal/extensive metabolisers): association with recurrence and half-life; type: in vivo, human
Description: CYP2D6 genotyping data were available for patients enrolled in DETECTIVE part 2 and GATHER. We mapped CYP2D6 diplotypes to an activity score using the standard scoring system ([Caudle et al., 2020]) (note that under the updated scoring system the *10 allele has a score of 0.25 instead of 0.5). The activity score cannot be used as a linear predictor (e.g. a score of 1 cannot be interpreted as twice the metabolic activity of a score of 0.5). For this reason, to assess association with recurrence, we dichotomised the activity scores into poor metabolisers (≤0.5) versus normal/extensive metabolisers (>0.5) ([Caudle et al., 2020]).

[2] = cited from earlier work

COc1cc(C)c2c(Oc3cccc(C(F)(F)F)c3)c(OC)cc(NC(C)CCCN)c2n1 (stereo not drawn) [tafenoquine]
haemolytic outcome ([1]; female heterozygous for G6PD deficiency (A- variant), total dose 1200 mg over 3 days): severe haemolytic reaction | drop in haemoglobin ([1]; homozygous G6PD deficient female (A- variant), 1200 mg over 3 days, remained asymptomatic): ~3 g/dL | reduction of recurrence rates (Plasmodium vivax; 300 mg fixed dose vs no 8-aminoquinoline treatment): around 70% | reduction of recurrence rates (Plasmodium vivax; 450 mg fixed dose vs no 8-aminoquinoline treatment): around 85% | mean recurrence proportion (Plasmodium vivax; 450 mg fixed dose, 95% CI 3.2–11.5): 6.2% | mean estimated recurrence proportion at 4 months (Plasmodium vivax; Emax model, 3 mg/kg): 28.5% | mean estimated recurrence proportion at 4 months (Plasmodium vivax; Emax model, 4 mg/kg): 20.8% | mean estimated recurrence proportion at 4 months (Plasmodium vivax; Emax model, 5 mg/kg): 14.2% | proportion of the maximal obtainable hypnozoiticidal effect (Plasmodium vivax; Emax model, 300 mg dose in a 60 kg adult (5 mg/kg)): 70% | reduction in the risk of P. vivax recurrence (Plasmodium vivax; Emax model, dose 7.5 mg/kg (i.e. 450 mg)): 90% | proportion of the effect achieved with 15 mg/kg (Plasmodium vivax; Emax model, dose of approximately 7.5 mg/kg, 15 mg/kg taken as maximum tolerated single dose): 90% | Recurrence at 4 months (Plasmodium vivax; TQ <3.75 mg/kg single dose + chloroquine, n=169): 57 (33.7) total number (%) | Recurrence at 4 months (Plasmodium vivax; TQ [3.75,6.25) mg/kg single dose + chloroquine, n=368): 79 (21.5) total number (%) | Recurrence at 4 months (Plasmodium vivax; TQ [6.25,8.75) mg/kg single dose + chloroquine, n=54): 4 (7.4) total number (%) | Recurrence at 4 months (Plasmodium vivax; TQ ≥8.75 mg/kg single dose + chloroquine, n=43, 8.75 mg/kg): No recurrences | Recurrence at 4 months (Plasmodium vivax; TQ ≥8.75 mg/kg single dose + chloroquine, n=43, listed as TQ, 8.75 mg/kg): 0 (0) total number (%) | number needed to treat to prevent one additional recurrence of malaria (Plasmodium vivax; adult dose increased from 300 mg to 450 mg, Emax model, 95% CI 7–21): 11 patients | effect on recurrence rates at 4 months of increasing dosing recommendation from 300mg to 450mg (Plasmodium vivax; body weight distribution as in pre-registration trials): more than halve | OR for recurrence per mg/kg increase (Plasmodium vivax; data from DETECTIVE part 1 only, 95% CI 0.52–0.72): 0.62 | mean recurrence proportion (Plasmodium vivax; fixed 300 mg dose in an adult, 95% CI 9.6–21.7): 15.3% | mean probability of recurrence at 4 months (Plasmodium vivax; logistic model estimate, following 5 mg/kg tafenoquine, 95% CI 0.10–0.23): 0.15 | odds-ratio (OR) for recurrence within 4 months per additional mg/kg of tafenoquine (Plasmodium vivax; logistic regression, all data n=1073, 95% CI 0.65–0.76): 0.70 | odds ratio for recurrence per absolute percentage point increase in the day 7 MetHb concentration (Plasmodium vivax; logit-Emax model adjusted for mg/kg dose, 95% CI 0.65 to 0.99): 0.81 | OR for recurrence within 4 months per mg/kg tafenoquine (Plasmodium vivax; restricted to patients who received 300 mg dose, n=469, 95% CI 0.51–0.85): 0.66 | odds ratio for recurrence at 4 months for each day increase in t1/2 (Plasmodium vivax; weight-adjusted t1/2, adjusted for mg/kg dose, 95% CI 1.06–1.25): 1.15 | OR for recurrence at 4 months, poor versus normal/extensive metabolisers (CYP2D6; CYP2D6 activity score ≤0.5 vs >0.5, 95% CI 0.4 to 2.2): 0.9 | change in tafenoquine elimination half-life in poor versus normal/extensive metabolisers (CYP2D6; activity score ≤0.5, n=35 vs n=356, 95% CI –1.22 to 0.94): –0.15 days | route of elimination ([2]; ref Brueckner et al., 1998): eliminated via biliary excretion with enterohepatic recirculation, but is not eliminated in the urine | persistence of plasma concentrations above a plausible minimum inhibitory concentration for the asexual activity ([2]; ref Dow and Smith, 2017): up to three months | terminal elimination half-life ([2]; ref Thakkar et al., 2018): about 15 days
